# Results published in patent US20260309717A1, “PROXIMITY INDUCING SYSTEM AND USES THEREOF” (SORBONNE UNIVERSITE, priority 2022, published 2026).
# Tests used:
# [1] = molecular target: T1, ^FIREmate and ^FIREtag (TOM20-ECFP-^FIREmate / mCherry-^FIREtag) (Halorhodospira halophila, UniProt P16113, A30V/C69G/D97P/F96I, form not given/G21E/G25R/K17N/M100R/M109L/Q41L/Q99S/S72T/T101G/V83A/Y94W/Y98T); test: Recruitment of cytoplasmic mCherry-^FIREtag to mitochondria (TOM20-ECFP-^FIREmate), time-lapse confocal microscopy, HeLa cells; assay type: cell-based; conditions: 10 μM
# T1 construct: TOM20(1-34)-ECFP-FIREmate and mCherry-FIREtag in HeLa or U2OS cells
# T1 sequence (P16113 1-114 A30V/C69G/D97P/F96I/G21E/G25R/K17N/M100R/M109L/Q41L/Q99S/S72T/T101G/V83A/Y94W/Y98T): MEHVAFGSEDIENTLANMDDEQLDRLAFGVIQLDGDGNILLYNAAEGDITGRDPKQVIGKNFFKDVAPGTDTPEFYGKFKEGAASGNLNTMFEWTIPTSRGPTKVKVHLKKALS
# Experimental: FIGS. 3A-E illustrate the recruitment of cytoplasmic proteins to mitochondria with the proximity inducing system described herein. FIG. 3A is a schematic representation of the experimental design wherein HeLa cells co-expressing mCherry-^FIREtag and Tom20-ECFP-^FIREmate were treated with 10 μM of match (either HBR-2,5DM or HMBR), and imaged by time-lapse confocal microscopy. FIGS. 3B-C are graphs showing the temporal evolution of the FIRE signal detected upon addition at 0 min of HBR-2,5DM (match1-3B) or HMBR (match2-3C). Data represents the mean values±SD of 20 cells from n=3 independent experiments (3B, D), or of 10 cells from n=3 independent experiments (3C, E). FIGS. 3D-E are sets of representative confocal micrographs of cells before (0 min) and after (5 min) addition of HBR-2,5DM (match1-3D) or HMBR (match2-3E) (mCherry: ex/em 561/606-675 nm; FIRE: ex/em 488/508-570 nm; ECFP: ex/em 445/455-499 nm). […] Scale bars are 20 μm.
# FIGS. 4A-D illustrate the recruitment over time of cytoplasmic proteins to mitochondria with the proximity inducing system described herein. (4A, C) HeLa cells co-expressing mCherry-^FIREtag and Tom20-ECFP-^FIREmate were treated with 10 μM HBR-2,5DM and imaged by time-lapse confocal microscopy at 1 image per 5 seconds. […] FIG. 4C is a graph showing the temporal evolution of the FIRE signal detected in HeLa cells upon addition of HBR-2,5DM at 0 sec. […] FIG. 4D is a graph showing the temporal evolution of the FIRE signal detected in U2OS cells upon addition of HBR-2,5DM at 0 min. […]
# The confocal micrographs were acquired on a Zeiss LSM 980 Laser Scanning Microscope equipped with a plan apochromat 63x/1.4 NA oil immersion objective. […] The images were analyzed using Icy (2.4.0.0) and Fiji (Image J). In short, to track fluorescence signal in a specific organelle, a ROI (region of interest) was determined by masking the signal in the ECFP (Enhanced Cyan Fluorescent Protein) channel with the plug-in HK-means with the following parameters: intensity class equals 100, minimum object size (pixels or px) equals 500, maximum object size (px) equals 1500-3000. […]
# [2] = test system: mCherry-FKBP-^FIREtag / TOM20-^FIREmate / FRB-ECFP-Giantin; test: Orthogonality with FRB-FKBP-rapamycin CIP system, confocal microscopy, HeLa cells; assay type: cell-based; conditions: simultaneous addition of 10 μM HBR-2,5DM and 500 nM rapamycin
# Experimental: FIG. 12A is a representation of the experimental design wherein HeLa cells co-expressing mCherry-FKBP-^FIREtag, TOM20-^FIREmate and FRB-ECFP-Giantin were treated with 10 μM of match (i.e., HBR-2,5DM) and 500 nM rapamycin, and imaged by time-lapse confocal microscopy. FIG. 12B is a set of representative confocal micrographs of cells before and after addition of HBR-2,5DM (match1) and rapamycin (rap) (mCherry: ex/em 561/606-675 nm; FIRE: ex/em 488/508-570 nm; ECFP: ex/em 445/455-499 nm). Scale bars are 20 μm.
# The confocal micrographs were acquired on a Zeiss LSM 980 Laser Scanning Microscope equipped with a plan apochromat 63x/1.4 NA oil immersion objective. ZEN software was used to collect the data. The images were analyzed using Icy (2.4.0.0) and Fiji (Image J). In short, to track fluorescence signal in a specific organelle, a ROI (region of interest) was determined by masking the signal in the ECFP (Enhanced Cyan Fluorescent Protein) channel with the plug-in HK-means with the following parameters: intensity class equals 100, minimum object size (pixels or px) equals 500, maximum object size (px) equals 1500-3000. The signal intensity of the ROI was tracked over time for each channel by using plug-in Active Contours. The background signal was subtracted. Data were processed using GraphPad Prism v9.3.0. […]
smiles,measurement,setting,value
"Cc1cc(/C=C2\SC(=S)NC2=O)c(C)cc1O [HBR-2,5DM, (Z)-5-(4-hydroxy-2,5-dimethylbenzylidene)-2-thioxo-1,3-thiazolidin-4-one]",half-time of formation of the ternary fluorescent assembly,[1]; 1 image per 5 seconds,about 20 seconds
same,translocation of mCherry-^FIREtag from cytosol to mitochondria,[1]; 5 min,very rapid translocation of the mCherry-^FIREtag fusion protein from the cytosol to mitochondria
same,FIRE signal (fluorescence) at the mitochondria,[1]; ex/em 488/508-570 nm,simultaneous appearance of a strong green fluorescent signal
same,translocation of mCherry-FKBP-^FIREtag,[2],triggered the translocation of mCherry-FKBP-^FIREtag to the Golgi apparatus and to the mitochondria
